Assay type in all cases: cell-based
One experiment addresses estrogen receptor (ER) (Homo sapiens (Human), UniProt P03372). Put plainly: Inhibition of the binding of estrogen (E) to estrogen receptor (ER), MCF-7/ERE-luciferase reporter cells. The settings on record: MCF-7/ERE-luciferase cells, 0.1 nM estradiol, 24 hours; read-out: IC50 value of inhibition effect on the binding of E to ER. (In a reporter assay the amount or activity of a reporter protein is the signal.)

Another experiment concerns MCF7 cells. Put plainly: Inhibition of the proliferation of MCF7 cells (Cell Titer-Glo). The note with it: Homo sapiens, MCF-7 cells, 72 hours, read-out: IC50 value of inhibition effect on the proliferation of MCF7 cells. An outline of the steps: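 Viability by Cell Titer-Glo luminescence; IC50 from signal versus log concentration.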
In general terms: Cellular ATP, detected with luciferase, serves as a proxy for viable cell number.

The target of another experiment is ERα (Homo sapiens (Human), UniProt P03372). Put plainly: Degradation effect on ERα in MCF-7 cells (ERα Duoset ELISA). The settings on record: MCF-7 cells; read-out: IC50 value of the degradation effect on ERα. Here is the method: In order to determine the degradation effect on ER induced by the compounds of the present invention, the following method was used to determine the degradation effect of the compounds of the present invention on ER.
MCF-7 cell line (TChu 74, Cell Bank of Chinese Academy of Sciences typical culture preservation Committee)
ERα Duoset Kit (#DYC5715E, R&D System)
MCF-7 cells were incubated in DMEM/F-12 medium containing 10% FBS.
On the first day of the experiment, MCF-7 cells were resuspended in DMEM/F-12 medium containing 10% FBS treated by activated carbon, then inoculated into a 48-well plate with a density of 50,000 cells/well and incubated for 22-24 hours.
On the second day of the experiment, the test compound was diluted with medium and added to a 48-well plate. The ERα-capture antibody was diluted to 1 μg/ml with PBS, and added to a 96-well plate at 100 μl/well. The plate was sealed and coated overnight at room temperature.
On the third day of the experiment, the coated 96-well plate was washed twice with PBS, added with a sealing solution (1% BSA in PBS) at 110 μl/well and sealed for 1 hour at room temperature. The 48-well plate was washed once with PBS, and the residual liquid was removed. Then, 60 μl of lysis (6 M urea, 1 mM EDTA, 0.5% Triton X-100, 1 mM PMSF, Protease Inhibitor cocktail) was added to each well. After lysis on ice for 15 minutes, the diluent (1 mM EDTA, 0.5% TritonX-100 dissolved in PBS) was added. The cell-diluted lysate was transferred to a 96-well plate at 100 μl/well, then the plate was incubated at room temperature for 2 hours. The diluted primary antibody was added after the plate was washed 4 times with a washing liquid (PBST). After incubation for 1 hour, the 96-well plate was washed 4 times, and the second antibody was added, then the plate was incubated for 30 minutes. After the plate was washed with a washing liquid, TMB chromogenic solution was added and incubated for 15 minutes. The reaction was stopped by the addition of 1 M H2SO4, then the light absorption at 450 nm was read.
(An ELISA detects its analyte on a solid surface through an enzyme-linked reagent.)

pIC50: −log10 of the molar value.

Results on 16 compounds are retold here after US10087191B2, “Piperidine derivative and preparation method and pharmaceutical use thereof” (Jiangsu Hengrui Medicine Co., Ltd., priority 2015, dated 2018).

estrogen receptor (ER), sequence (P03372 whole entry): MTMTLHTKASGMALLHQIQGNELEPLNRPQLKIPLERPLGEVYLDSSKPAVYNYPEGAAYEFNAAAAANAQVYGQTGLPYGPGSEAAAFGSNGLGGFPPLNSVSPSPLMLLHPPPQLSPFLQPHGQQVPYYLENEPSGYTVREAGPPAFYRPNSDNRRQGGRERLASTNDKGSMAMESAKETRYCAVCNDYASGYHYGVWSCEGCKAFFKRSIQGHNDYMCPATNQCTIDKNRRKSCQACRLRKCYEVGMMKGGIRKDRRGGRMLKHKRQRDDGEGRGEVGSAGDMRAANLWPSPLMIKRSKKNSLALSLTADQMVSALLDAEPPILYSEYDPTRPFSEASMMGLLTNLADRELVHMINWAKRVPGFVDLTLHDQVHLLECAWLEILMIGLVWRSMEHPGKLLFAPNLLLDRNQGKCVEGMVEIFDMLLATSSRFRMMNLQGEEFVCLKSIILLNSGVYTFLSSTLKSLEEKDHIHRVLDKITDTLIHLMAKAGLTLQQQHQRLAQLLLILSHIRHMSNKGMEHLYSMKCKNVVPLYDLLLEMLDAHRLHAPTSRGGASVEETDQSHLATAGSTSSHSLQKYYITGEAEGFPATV
ERα, sequence (P03372 whole entry): as above

As to `CNC(=O)COc1ccc2c(c1)CC(C)N(CC(C)(C)F)C2c1c(F)cc(/C=C/C(=O)O)cc1F` [Example 32, (E)-3-(3,5-difluoro-4-((1S,3R/1R,3S)-2-(2-fluoro-2-methylpropyl)-3-methyl-6-(2-(methylamino)-2-oxoethoxy)-1,2,3,4-tetrahydroisoquinolin-1-yl)phenyl)acrylic acid], the pIC50 was 8.84 on estrogen receptor (ER) and 11.00 in the experiment with MCF7 cells. For the same compound, at ERα, the DC50 was 0.41 nM.

On to `CC1Cc2cc(N3CCOCC3)ccc2C(c2c(F)cc(/C=C/C(=O)O)cc2F)N1CC(C)(C)F` [Example 41, (E)-3-(3,5-difluoro-4-((1S,3R/1R,3S)-2-(2-fluoro-2-methylpropyl)-3-methyl-6-morpholino-1,2,3,4-tetrahydroisoquinolin-1-yl)phenyl)acrylic acid], for which the pIC50 was 8.71 on estrogen receptor (ER) and 8.72 with MCF7 cells. The DC50 at ERα was found to be 0.36 nM.

Turning to `CC1Cc2c(ccc(-c3cnn(C)c3)c2F)C(c2c(F)cc(/C=C/C(=O)O)cc2F)N1CC(C)(C)F` [Example 45, (E)-3-(3,5-difluoro-4-((1S,3R/1R,3S)-5-fluoro-2-(2-fluoro-2-methylpropyl)-3-methyl-6-(1-methyl-1H-pyrazol-4-yl)-1,2,3,4-tetrahydroisoquinolin-1-yl)phenyl)acrylic acid], the pIC50 is 9.06 at estrogen receptor (ER) and 10.10 in the experiment on MCF7 cells. At ERα, the DC50 was found to be 2.12 nM.

Take `CCn1cc(-c2ccc3c(c2F)CC(C)N(CC(C)(C)F)C3c2c(F)cc(/C=C/C(=O)O)cc2F)cn1` [Example 47, (E)-3-(4-((1S,3R/1R,3S)-6-(1-ethyl-1H-pyrazol-4-yl)-5-fluoro-2-(2-fluoro-2-methylpropyl)-3-methyl-1,2,3,4-tetrahydroisoquinolin-1-yl)-3,5-difluorophenyl)acrylic acid]: the pIC50 on estrogen receptor (ER) was 8.82; with MCF7 cells, 9.15. Further, on ERα, the DC50 amounted to 3.54 nM.

In the case of `CC1Cc2cc(-c3cnn(CCF)c3)ccc2C(c2c(F)cc(/C=C/C(=O)O)cc2F)N1CC(C)(C)F` [Example 48, (E)-3-(3,5-difluoro-4-((1S,3R/1R,3S)-2-(2-fluoro-2-methylpropyl)-6-(1-(2-fluoroethyl)-1H-pyrazol-4-yl)-3-methyl-1,2,3,4-tetrahydroisoquinolin-1-yl)phenyl)acrylic acid], the pIC50 at estrogen receptor (ER) was 8.74; in the experiment on MCF7 cells, 9.19. Besides, the DC50 at ERα came to 7.36 nM.

For `CC1Cc2cc(-c3cnn(C)c3)ccc2C(c2c(F)cc(/C=C/C(=O)O)cc2F)N1CC(C)(C)F` [Example 55, (E)-3-(3,5-difluoro-4-((1S,3R/1R,3S)-2-(2-fluoro-2-methylpropyl)-3-methyl-6-(1-methyl-1H-pyrazol-4-yl)-1,2,3,4-tetrahydroisoquinolin-1-yl)phenyl)acrylic acid], the pIC50 was 9.09 at estrogen receptor (ER) and 9.70 with MCF7 cells. For the same compound, on ERα, the DC50 was 0.69 nM.

Consider `CC1Cc2cc(-c3cnn(C4CC4)c3)ccc2C(c2c(F)cc(/C=C/C(=O)O)cc2F)N1CC(C)(C)F` [Example 58, (E)-3-(4-((1S,3R/1R,3S)-6-(1-cyclopropyl-1H-pyrazol-4-yl)-2-(2-fluoro-2-methylpropyl)-3-methyl-1,2,3,4-tetrahydroisoquinolin-1-yl)-3,5-difluorophenyl)acrylic acid], for which the results for the pIC50 at estrogen receptor (ER) and in the experiment on MCF7 cells were 9.08 and 8.87, respectively. In addition, the DC50 at ERα was determined as 1.79 nM.

On to `CC1Cc2cc(-c3ccccc3)ccc2C(c2c(F)cc(/C=C/C(=O)O)cc2F)N1CC(C)(C)F` [Example 59, (E)-3-(3,5-difluoro-4-((1S,3R/1R,3S)-2-(2-fluoro-2-methylpropyl)-3-methyl-6-phenyl-1,2,3,4-tetrahydroisoquinolin-1-yl)phenyl)acrylic acid], for which the pIC50 on estrogen receptor (ER) is 8.25; with MCF7 cells it was 8.89. Moreover, the DC50 on ERα was found to be 6.25 nM.

In the case of `CC1Cc2cc(-c3ccc(N4CCOCC4)cc3)ccc2C(c2c(F)cc(/C=C/C(=O)O)cc2F)N1CC(C)(C)F` [Example 60, (E)-3-(3,5-difluoro-4-((1S,3R/1R,3S)-2-(2-fluoro-2-methylpropyl)-3-methyl-6-(4-morpholinophenyl)-1,2,3,4-tetrahydroisoquinolin-1-yl)phenyl)acrylic acid], the results for the pIC50 at estrogen receptor (ER) and in the experiment on MCF7 cells were 8.15 and 8.68, respectively. At ERα, the DC50 turned out to be 7.35 nM.

Turning to `C[C@@H]1Cc2cc(-c3ccc4ncccc4c3)ccc2[C@@H](c2c(F)cc(/C=C/C(=O)O)cc2F)N1CC(C)(C)F` [Example 64, (E)-3-(3,5-difluoro-4-((1S,3R)-2-(2-fluoro-2-methylpropyl)-3-methyl-6-(quinolin-6-yl)-1,2,3,4-tetrahydroisoquinolin-1-yl)phenyl)acrylic acid], the values for the pIC50 on estrogen receptor (ER) and with MCF7 cells were 8.97 and 9.66, respectively. Further, the DC50 on ERα was determined as 4.72 nM.

Take `CC1Cc2cc(-c3ccc4[nH]ncc4c3)ccc2C(c2c(F)cc(/C=C/C(=O)O)cc2F)N1CC(C)(C)F` [Example 67, (E)-3-(3,5-difluoro-4-((1S,3R/1R,3S)-2-(2-fluoro-2-methylpropyl)-6-(1H-indazol-5-yl)-3-methyl-1,2,3,4-tetrahydroisoquinolin-1-yl)phenyl)acrylic acid]: the pIC50 was 8.26 on estrogen receptor (ER) and 10.15 in the experiment on MCF7 cells. Also, the DC50 at ERα worked out at 6.69 nM.

As to `CC1Cc2cc3ocnc3cc2C(c2c(F)cc(/C=C/C(=O)O)cc2F)N1CC(C)(C)F` [Example 81, (E)-3-(3,5-difluoro-4-((5S,7R/5R,7S)-6-(2-fluoro-2-methylpropyl)-7-methyl-5,6,7,8-tetrahydrooxazolo[5,4-g]isoquinolin-5-yl)phenyl)acrylic acid], the figures for the pIC50 at estrogen receptor (ER) and in the experiment on MCF7 cells were 8.39 and 8.47, respectively. Also, the DC50 at ERα was 1.62 nM.

Regarding `CC1Cc2c(oc3cc(F)ccc23)C(c2c(F)cc(/C=C/C(=O)O)cc2F)N1CC(C)(C)F` [Example 86, (E)-3-(3,5-difluoro-4-((1R,3R/1S,3S)-7-fluoro-2-(2-fluoro-2-methylpropyl)-3-methyl-1,2,3,4-tetrahydrobenzofuro[2,3-c]pyridin-1-yl)phenyl)acrylic acid], the pIC50 was 8.35 at estrogen receptor (ER) and 9.19 in the experiment on MCF7 cells. The DC50 on ERα amounted to 7.13 nM.

Take `CC1Cc2c(oc3ccc(-c4cn[nH]c4)cc23)C(c2c(F)cc(/C=C/C(=O)O)cc2F)N1CC(C)(C)F` [Example 88, (E)-3-(3,5-difluoro-4-((1R,3R/1S,3S)-2-(2-fluoro-2-methylpropyl)-3-methyl-6-(1H-pyrazol-4-yl)-1,2,3,4-tetrahydrobenzofuro[2,3-c]pyridin-1-yl)phenyl)acrylic acid]: the values for the pIC50 at estrogen receptor (ER) and in the experiment with MCF7 cells were 8.91 and 9.17, respectively. The DC50 on ERα was found to be 1.61 nM.

For the compound `CC1Cc2cc3[nH]ncc3cc2C(c2c(F)cc(/C=C/C(=O)O)cc2F)N1CC(C)(C)F` [Example 91, (E)-3-(3,5-difluoro-4-((5S,7R/5R,7S)-6-(2-fluoro-2-methylpropyl)-7-methyl-5,6,7,8-tetrahydro-1H-pyrazolo[3,4-g]isoquinolin-5-yl)phenyl)acrylic acid], the pIC50 on estrogen receptor (ER) is 8.73; in the experiment with MCF7 cells it was 9.08. On ERα, the DC50 is 2.33 nM.

For `C[C@@H]1Cc2c(ccc3[nH]ncc23)[C@@H](c2c(F)cc(/C=C/C(=O)O)cc2F)N1CC(C)(C)F` [Example 94, (E)-3-(3,5-difluoro-4-((6S,8R)-7-(2-fluoro-2-methylpropyl)-8-methyl-6,7,8,9-tetrahydro-3H-pyrazolo[4,3-f]isoquinolin-6-yl)phenyl)acrylic acid], the pIC50 on estrogen receptor (ER) was 10.40; in the experiment on MCF7 cells it was 10.52. On ERα, the DC50 amounted to 0.02 nM.
